Measured values: paper PMC12440775 (Frontiers in Pharmacology, 2025)
Like-named read-outs stand apart in the source and are kept apart here.

Key:
[1] = Food effect on relative bioavailability of 480 mg FDV, two-period crossover (Part 2); assay type: in vivo, human; details: for Tmax: median (range); for Tmax / AUC(0-t) / Vd/F / half-life: N = 7; for AUC(0-t) / Vd/F / half-life: mean (CV%); for Vd/F: read-out: Vz/F; for half-life: read-out: t½ (converted)
Procedure: Blood samples were taken pre-dose (0) and at prespecified time points after dosing (Figure 1). At each time point, approximately 4.9 mL of blood was drawn into evacuated collection tubes, containing ethylene diamine tetraacetate (EDTA) anticoagulant and labeled with sample identification information. The EDTA-anticoagulated blood samples were immediately placed on ice and centrifuged at 4 °C and approximately 2000–4,000 g for approximately 10 min in a refrigerated centrifuge as soon as possible after collection. The harvested plasma was split into two aliquots, immediately placed in appropriately labeled tubes, and stored at −20 °C or below until shipment.
Standard formulas for non-compartmental pharmacokinetic analysis provided by WinNonlin were used in determination of the maximum concentration (Cmax), time to maximum concentration (tmax), oral clearance (CL/F), mean residence time (MRTpo), and apparent volume distribution in terminal phase (Vz/F). The area under the plasma concentration–time curve (AUC) was calculated using a linear up/log down trapezoidal algorithm. The predicted concentration at the last time-point with quantifiable concentration was used for extrapolation of AUC. The fraction excreted as unchanged drug in urine (fe) was calculated as the percentage of the amount of drug excreted in urine as unchanged drug (Aet1–t2) compared to the administered dose ([Huang et al., 2008b]). […]

[2] = HCV-infected patients, ref Huang et al., cited from earlier work
[3] = 480 mg FDV in solution, fed vs fasted
[4] = male, human, plasma, oral, 480 mg, FDV 480 mg/fasted
[5] = male, human, plasma, oral, 480 mg, FDV 480 mg/fed

C=C[C@@H]1C[C@]1(NC(=O)[C@@H]1C[C@@H](Oc2cc(-c3csc(NC(=O)C(C)C)n3)nc3c(Br)c(OC)ccc23)CN1C(=O)[C@@H](NC(=O)OC1CCCC1)C(C)(C)C)C(=O)O [FDV, Faldaprevir]
Increase of AUC0–∞ (systemic exposure) after high-fat breakfast [1, 3]: 14% | Increase of Cmax after high-fat and high-calorie breakfast [1, 3]: 9% | Effect of food on the rBA of FDV ([1]; 480 mg FDV in solution, high-fat breakfast): no clinically relevant effect | Tmax ([1]; FDV 480 mg/fasted): 4 (4–6) h | Tmax ([1]; FDV 480 mg/fed): 6 (4–12) h | AUC(0-t) [1, 4]: 83400 ng·h/mL | Vd/F [1, 4]: 161 L | half-life [1, 4]: 19.6 h | Tmax ([1]; male, human, plasma, oral, 480 mg, FDV 480 mg/fasted, read-out: tmax): 6 h | AUC(0-t) [1, 5]: 92000 ng·h/mL | Vd/F [1, 5]: 132 L | half-life [1, 5]: 18 h | Tmax ([1]; male, human, plasma, oral, 480 mg, FDV 480 mg/fed, read-out: tmax): 4 h | FDV exposure at 240 mg compared to the 120-mg dose, based on trough concentrations [2]; 2016: approximately 5 fold | FDV exposure at 240 mg compared to the 120-mg dose, based on AUC0–24,ss [2]; 2021: up to 7 fold
